# From the kinase profiling compilation of Christmann-Franck et al. (2016)
# How the values were obtained:
# Assay in all cases: KINOMEscan competition binding
# Settings in all cases: compound 10.0 µM
# [1] = biological target: RPS6KA4 KD2 (human) (UniProt O75676)
# [2] = biological target: ACVR2B (human) (UniProt Q13705)
# [3] = biological target: PRKD1 (human) (UniProt Q15139)
# [4] = test system: KIT (human), P10721 [V559D]
# [5] = biological target: DAPK3 (human) (UniProt O43293)
# [6] = test system: FLT3 (human), P36888 [N841I]
# [7] = test system: FLT3 (human), P36888 [D835Y]
# [8] = biological target: MAPK15 (human) (UniProt Q8TD08)
# [9] = biological target: STK11 (human) (UniProt Q15831)
# [10] = biological target: RPS6KA5 KD2 (human) (UniProt O75582)
# [11] = biological target: NEK2 (human) (UniProt P51955)
# Chain of NEK2 (human) (P51955 whole entry, looked up): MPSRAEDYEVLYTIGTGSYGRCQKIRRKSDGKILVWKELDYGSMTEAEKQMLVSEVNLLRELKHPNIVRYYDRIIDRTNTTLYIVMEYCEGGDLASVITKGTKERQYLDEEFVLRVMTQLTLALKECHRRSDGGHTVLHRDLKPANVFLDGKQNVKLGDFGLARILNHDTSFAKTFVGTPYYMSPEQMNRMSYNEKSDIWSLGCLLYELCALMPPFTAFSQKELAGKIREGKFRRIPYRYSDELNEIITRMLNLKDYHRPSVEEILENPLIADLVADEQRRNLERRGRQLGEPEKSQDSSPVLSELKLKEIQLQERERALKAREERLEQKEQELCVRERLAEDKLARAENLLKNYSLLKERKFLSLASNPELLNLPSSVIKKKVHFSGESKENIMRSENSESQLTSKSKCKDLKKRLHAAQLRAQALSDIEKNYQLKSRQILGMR
# [12] = biological target: AAK1 (human) (UniProt Q2M2I8)
# [13] = biological target: RIPK2 (human) (UniProt O43353)
# [14] = biological target: TTK (human) (UniProt P33981)
# [15] = biological target: MINK1 (human) (UniProt Q8N4C8)
# [16] = test system: FLT3 (human), P36888 [K663Q]
# [17] = biological target: CLK3 (human) (UniProt P49761)
# Chain of CLK3 (human) (P49761 whole entry, looked up): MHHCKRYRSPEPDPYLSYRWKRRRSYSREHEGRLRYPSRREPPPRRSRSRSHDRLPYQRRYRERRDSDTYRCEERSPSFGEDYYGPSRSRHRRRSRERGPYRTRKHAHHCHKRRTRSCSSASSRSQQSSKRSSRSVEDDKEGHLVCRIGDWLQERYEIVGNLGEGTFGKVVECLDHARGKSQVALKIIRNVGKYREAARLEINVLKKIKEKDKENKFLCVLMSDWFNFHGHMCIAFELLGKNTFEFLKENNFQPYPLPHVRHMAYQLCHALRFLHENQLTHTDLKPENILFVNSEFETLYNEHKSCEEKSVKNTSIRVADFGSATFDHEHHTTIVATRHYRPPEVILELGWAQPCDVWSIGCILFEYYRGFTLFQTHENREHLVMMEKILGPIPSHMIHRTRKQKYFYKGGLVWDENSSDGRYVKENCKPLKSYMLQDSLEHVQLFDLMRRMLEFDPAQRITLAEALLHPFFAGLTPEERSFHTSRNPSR
# [18] = biological target: CAMKK1 (human) (UniProt Q8N5S9)
# Chain of CAMKK1 (human) (Q8N5S9 whole entry, looked up): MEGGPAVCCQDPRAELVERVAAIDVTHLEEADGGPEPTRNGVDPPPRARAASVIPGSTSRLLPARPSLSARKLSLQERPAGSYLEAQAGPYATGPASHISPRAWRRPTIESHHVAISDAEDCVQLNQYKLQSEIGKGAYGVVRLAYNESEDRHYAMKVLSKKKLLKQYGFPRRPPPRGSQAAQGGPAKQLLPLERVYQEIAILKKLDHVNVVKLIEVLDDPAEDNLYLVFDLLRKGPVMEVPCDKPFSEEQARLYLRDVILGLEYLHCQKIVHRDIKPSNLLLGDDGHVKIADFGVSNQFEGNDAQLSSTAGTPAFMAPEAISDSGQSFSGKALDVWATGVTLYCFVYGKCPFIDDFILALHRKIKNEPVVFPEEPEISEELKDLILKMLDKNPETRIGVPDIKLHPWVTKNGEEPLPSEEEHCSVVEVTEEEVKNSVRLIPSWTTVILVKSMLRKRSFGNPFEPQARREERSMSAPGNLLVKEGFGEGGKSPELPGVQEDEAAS
# [19] = biological target: CSNK2A1 (human) (UniProt P68400)
# Chain of CSNK2A1 (human) (P68400 whole entry, looked up): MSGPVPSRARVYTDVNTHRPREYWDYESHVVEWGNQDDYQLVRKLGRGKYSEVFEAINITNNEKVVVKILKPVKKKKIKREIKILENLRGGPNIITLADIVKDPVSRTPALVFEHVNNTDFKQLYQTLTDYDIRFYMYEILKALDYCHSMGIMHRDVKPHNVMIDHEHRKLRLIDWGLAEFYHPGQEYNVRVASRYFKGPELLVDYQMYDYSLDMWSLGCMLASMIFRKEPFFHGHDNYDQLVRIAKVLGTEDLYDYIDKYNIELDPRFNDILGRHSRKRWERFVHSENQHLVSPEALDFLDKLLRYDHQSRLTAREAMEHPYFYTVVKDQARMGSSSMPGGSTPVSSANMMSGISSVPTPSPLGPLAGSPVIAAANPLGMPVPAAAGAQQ
# [20] = biological target: PRKD3 (human) (UniProt O94806)
# [21] = biological target: JAK3 JH1 catalytic (human) (UniProt P52333)
# [22] = biological target: PLK4 (human) (UniProt O00444)
# [23] = biological target: CHUK (human) (UniProt O15111)
# Chain of CHUK (human) (O15111 whole entry, looked up): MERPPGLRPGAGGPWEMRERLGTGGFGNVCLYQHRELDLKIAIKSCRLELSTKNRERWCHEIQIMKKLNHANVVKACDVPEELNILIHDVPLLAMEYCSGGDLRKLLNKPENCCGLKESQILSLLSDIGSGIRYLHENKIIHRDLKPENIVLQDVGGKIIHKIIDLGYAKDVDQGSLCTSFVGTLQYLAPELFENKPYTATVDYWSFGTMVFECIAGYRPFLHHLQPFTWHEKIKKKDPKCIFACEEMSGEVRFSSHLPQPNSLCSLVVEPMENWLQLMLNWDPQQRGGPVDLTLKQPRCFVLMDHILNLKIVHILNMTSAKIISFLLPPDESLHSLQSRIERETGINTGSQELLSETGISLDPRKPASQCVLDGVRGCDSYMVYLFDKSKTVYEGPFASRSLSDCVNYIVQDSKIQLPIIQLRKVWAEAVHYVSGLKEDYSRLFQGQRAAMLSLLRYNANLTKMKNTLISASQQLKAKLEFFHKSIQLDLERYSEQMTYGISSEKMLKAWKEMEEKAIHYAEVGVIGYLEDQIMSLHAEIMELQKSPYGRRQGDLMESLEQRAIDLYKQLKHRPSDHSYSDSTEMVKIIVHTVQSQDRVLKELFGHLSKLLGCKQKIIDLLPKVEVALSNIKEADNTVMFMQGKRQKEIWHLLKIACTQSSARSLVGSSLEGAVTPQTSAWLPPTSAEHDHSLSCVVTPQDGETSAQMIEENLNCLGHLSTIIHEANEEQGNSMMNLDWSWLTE
# [24] = biological target: ACVR1 (human) (UniProt Q04771)
# [25] = biological target: TYK2 JH2 pseudokinase (human) (UniProt P29597)
# Chain of TYK2 JH2 pseudokinase (human) (P29597 whole entry, looked up): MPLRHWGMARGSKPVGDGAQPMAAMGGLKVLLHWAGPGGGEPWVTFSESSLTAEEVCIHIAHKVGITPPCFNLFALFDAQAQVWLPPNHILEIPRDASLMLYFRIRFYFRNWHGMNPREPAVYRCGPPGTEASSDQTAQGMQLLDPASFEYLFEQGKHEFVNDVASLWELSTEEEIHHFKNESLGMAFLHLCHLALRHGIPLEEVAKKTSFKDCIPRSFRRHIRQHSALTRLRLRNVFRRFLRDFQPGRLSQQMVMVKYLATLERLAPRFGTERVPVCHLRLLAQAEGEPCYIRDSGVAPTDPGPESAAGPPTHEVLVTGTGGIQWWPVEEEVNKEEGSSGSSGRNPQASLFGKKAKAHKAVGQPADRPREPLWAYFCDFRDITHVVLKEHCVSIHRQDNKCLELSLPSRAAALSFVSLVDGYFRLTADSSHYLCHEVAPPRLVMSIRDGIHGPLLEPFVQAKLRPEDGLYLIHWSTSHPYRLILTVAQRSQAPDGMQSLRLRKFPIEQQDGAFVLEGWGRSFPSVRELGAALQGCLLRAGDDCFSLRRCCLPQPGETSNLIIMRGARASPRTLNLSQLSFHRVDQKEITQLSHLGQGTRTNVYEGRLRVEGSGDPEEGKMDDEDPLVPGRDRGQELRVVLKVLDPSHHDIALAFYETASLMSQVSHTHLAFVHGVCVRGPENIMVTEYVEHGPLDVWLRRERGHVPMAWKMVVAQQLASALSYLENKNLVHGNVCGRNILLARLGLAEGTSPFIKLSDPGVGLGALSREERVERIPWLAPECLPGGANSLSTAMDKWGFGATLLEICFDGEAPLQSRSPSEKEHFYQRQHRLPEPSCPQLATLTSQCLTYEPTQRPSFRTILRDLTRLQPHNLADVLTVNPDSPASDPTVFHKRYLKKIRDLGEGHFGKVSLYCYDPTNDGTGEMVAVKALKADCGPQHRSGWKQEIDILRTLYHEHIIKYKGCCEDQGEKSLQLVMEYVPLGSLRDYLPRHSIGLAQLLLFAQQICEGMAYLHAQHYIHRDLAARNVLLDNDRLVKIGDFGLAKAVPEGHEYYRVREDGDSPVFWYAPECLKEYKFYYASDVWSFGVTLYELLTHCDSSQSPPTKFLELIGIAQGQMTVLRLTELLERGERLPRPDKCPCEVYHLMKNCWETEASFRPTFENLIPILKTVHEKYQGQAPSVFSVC
# [26] = biological target: MKNK1 (human) (UniProt Q9BUB5)
# [27] = biological target: CDK16 (human) (UniProt Q00536)
# [28] = biological target: GAK (human) (UniProt O14976)
# [29] = biological target: TAOK3 (human) (UniProt Q9H2K8)
# [30] = biological target: MYLK4 (human) (UniProt Q86YV6)
# [31] = biological target: ULK2 (human) (UniProt Q8IYT8)
# [32] = test system: EGFR (human), P00533 [747-751 del / S ins]
# [33] = biological target: MAPK8 (human) (UniProt P45983)
# [34] = biological target: RPS6KA2 KD2 (human) (UniProt Q15349)
# [35] = biological target: TNIK (human) (UniProt Q9UKE5)
# [36] = biological target: STK33 (human) (UniProt Q9BYT3)
# [37] = biological target: MYLK (human) (UniProt Q15746)
# [38] = biological target: STK16 (human) (UniProt O75716)
# Chain of STK16 (human) (O75716 whole entry, looked up): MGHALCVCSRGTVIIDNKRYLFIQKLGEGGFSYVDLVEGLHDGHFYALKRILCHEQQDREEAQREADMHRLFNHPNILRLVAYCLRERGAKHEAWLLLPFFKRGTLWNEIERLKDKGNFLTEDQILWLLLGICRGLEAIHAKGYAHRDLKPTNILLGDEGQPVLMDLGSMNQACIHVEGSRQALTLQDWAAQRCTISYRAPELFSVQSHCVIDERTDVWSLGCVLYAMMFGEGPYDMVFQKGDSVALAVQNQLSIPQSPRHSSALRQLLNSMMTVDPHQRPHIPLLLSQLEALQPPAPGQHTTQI
# Chain of PRKD1 (human) (Q15139 whole entry, looked up): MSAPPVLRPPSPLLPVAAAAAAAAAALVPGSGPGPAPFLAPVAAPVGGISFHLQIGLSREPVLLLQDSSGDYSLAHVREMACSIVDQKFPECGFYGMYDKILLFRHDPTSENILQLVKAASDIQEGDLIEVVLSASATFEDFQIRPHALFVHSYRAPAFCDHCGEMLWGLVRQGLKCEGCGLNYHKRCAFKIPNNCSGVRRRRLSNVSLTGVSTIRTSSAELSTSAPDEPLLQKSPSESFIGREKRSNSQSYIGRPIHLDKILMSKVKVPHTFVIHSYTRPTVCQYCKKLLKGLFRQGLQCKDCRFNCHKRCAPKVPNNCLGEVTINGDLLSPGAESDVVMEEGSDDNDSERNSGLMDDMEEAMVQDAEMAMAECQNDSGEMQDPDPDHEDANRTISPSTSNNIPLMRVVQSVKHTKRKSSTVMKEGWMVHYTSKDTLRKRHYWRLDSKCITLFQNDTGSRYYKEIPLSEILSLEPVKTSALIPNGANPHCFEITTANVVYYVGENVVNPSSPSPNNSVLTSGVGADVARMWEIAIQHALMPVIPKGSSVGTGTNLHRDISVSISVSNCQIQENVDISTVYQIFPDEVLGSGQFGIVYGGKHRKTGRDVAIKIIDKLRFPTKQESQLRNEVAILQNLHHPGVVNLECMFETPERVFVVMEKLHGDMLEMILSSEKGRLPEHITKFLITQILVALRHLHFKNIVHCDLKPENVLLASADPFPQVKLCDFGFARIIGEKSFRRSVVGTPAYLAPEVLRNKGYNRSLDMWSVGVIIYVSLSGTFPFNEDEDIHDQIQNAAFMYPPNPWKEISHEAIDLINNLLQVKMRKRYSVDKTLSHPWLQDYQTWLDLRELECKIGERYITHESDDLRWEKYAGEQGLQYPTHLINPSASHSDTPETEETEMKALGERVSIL
"kinase still bound, per cent of control [1] [%]","kinase still bound, per cent of control [2] [%]","kinase still bound, per cent of control [3] [%]","kinase still bound, per cent of control [5] [%]","kinase still bound, per cent of control [7] [%]","kinase still bound, per cent of control [10] [%]","kinase still bound, per cent of control [11] [%]","kinase still bound, per cent of control [12] [%]","kinase still bound, per cent of control [13] [%]","kinase still bound, per cent of control [15] [%]","kinase still bound, per cent of control [17] [%]","kinase still bound, per cent of control [18] [%]","kinase still bound, per cent of control [19] [%]","kinase still bound, per cent of control [21] [%]","kinase still bound, per cent of control [22] [%]","kinase still bound, per cent of control [23] [%]","kinase still bound, per cent of control [28] [%]","kinase still bound, per cent of control [30] [%]","kinase still bound, per cent of control [31] [%]",SMILES,"kinase still bound, per cent of control [8] [%]",further results
0.35,12,15,4.4,20,0.15,19,7.6,11,15,2.4,33,4.8,29,24,15,,,,CS(=O)(=O)Nc1ccc(-c2cc(/C=C3\SC(=N)NC3=O)c[nH]c2=O)cc1,0.1,"kinase still bound, per cent of control [4]: 12%; kinase still bound, per cent of control [6]: 30%; kinase still bound, per cent of control [9]: 7%; kinase still bound, per cent of control [14]: 33%; kinase still bound, per cent of control [16]: 13%; kinase still bound, per cent of control [20]: 33%; kinase still bound, per cent of control [24]: 27%"
0.75,22,,25,,,,15,,,4.2,16,5.8,32,8.8,16,6.6,6,,N=C1NC(=O)/C(=C/c2ccc(-c3ccc(C(N)=O)cc3O)o2)S1,0.1,"kinase still bound, per cent of control [25]: 0.25%; kinase still bound, per cent of control [26]: 13%; kinase still bound, per cent of control [27]: 0.65%; kinase still bound, per cent of control [14]: 34%; kinase still bound, per cent of control [29]: 13%"
1.8,16,32,8.6,,24,,16,34,24,11,14,,26,4.6,15,7.6,8.1,14,N=C1NC(=O)/C(=C/c2ccc(-c3ccc(F)cc3O)o2)S1,0.1,"kinase still bound, per cent of control [25]: 31%; kinase still bound, per cent of control [26]: 15%; kinase still bound, per cent of control [27]: 0.1%; kinase still bound, per cent of control [32]: 16%; kinase still bound, per cent of control [29]: 0.2%"
,10,,29,19,,,,,,,,12,,5.2,,,32,,N=C1NC(=O)/C(=C/c2ccc(-c3csc4ccccc34)o2)S1,7.6,"kinase still bound, per cent of control [25]: 8.5%; kinase still bound, per cent of control [33]: 34%; kinase still bound, per cent of control [34]: 21%"
0.1,,7,4.7,23,11,13,12,27,29,29,,,,,,30,,4.8,N=C1NC(=O)/C(=C/c2c[nH]c(=O)c(-c3ccc(N4CCNCC4)nc3)c2)S1,4,"kinase still bound, per cent of control [35]: 18%; kinase still bound, per cent of control [36]: 7.2%; kinase still bound, per cent of control [16]: 33%; kinase still bound, per cent of control [34]: 33%; kinase still bound, per cent of control [24]: 29%"
2.2,15,26,7.4,,29,,8.2,,15,12,13,9.9,14,3.2,9.5,7.6,5.9,12,N=C1NC(=O)/C(=C/c2ccc(-c3ccccc3O)o2)S1,0.3,"kinase still bound, per cent of control [27]: 0.15%; kinase still bound, per cent of control [32]: 31%; kinase still bound, per cent of control [20]: 28%; kinase still bound, per cent of control [29]: 0.05%; kinase still bound, per cent of control [37]: 14%"
0.15,,,6.2,,11,27,6.2,,,14,25,1.6,,14,19,3.4,,13,CSC1=NC(=O)/C(=C/c2c[nH]c(=O)c(-c3ccc(NS(C)(=O)=O)cc3)c2)S1,5,"kinase still bound, per cent of control [9]: 15%; kinase still bound, per cent of control [38]: 21%; kinase still bound, per cent of control [37]: 34%; kinase still bound, per cent of control [34]: 16%"
